US20260060250A1, “HERBICIDAL PYRIDONE DERIVATIVES” (SYNGENTA CROP PROTECTION AG, priority 2022, published 2026)

Legend:
Assay type in all cases: in vivo
[1] = test system: Ipomoea hederacea (IPOHE); experiment: Pre-emergence Test (Table B1); parameters: key: 5=81-100%; 4=61-80%; 3=41-60%; 2=21-40%; 1=0-20%; 0=inactive; conditions: 1000 g/ha, evaluated after 13 days
[2] = test system: Echinochloa crus-galli (ECHCG); experiment: Pre-emergence Test (Table B1); parameters: key: 5=81-100%; 4=61-80%; 3=41-60%; 2=21-40%; 1=0-20%; 0=inactive; conditions: 1000 g/ha, evaluated after 13 days
Setaria faberi (SETFA) [3] = experiment: Post-emergence Test (Table B2); conditions: evaluated after 13 days
Procedure: (§1) Seeds of a variety of test species are sown in standard soil in pots (Amaranthus palmeri (AMAPA), Setaria faberi (SETFA), Echinochloa crus-galli (ECHCG), (Amaranthus retroflexus (AMARE), Zea mays (ZEAMX), Ipomoea hederacea (IPOHE)). After 8 days cultivation under controlled conditions in a glasshouse (at 24° C./16° C., day/night; 14 hours light; 65% humidity), the plants are sprayed with an aqueous spray solution derived from the formulation of the technical active ingredient in acetone/water (50:50) solution containing 0.5% Tween 20 (polyoxyethelyene sorbitan monolaurate, CAS RN 9005-64-5). Compounds are applied at 1000 g/ha unless otherwise stated. The test plants are then grown in a glasshouse under controlled conditions in a glasshouse (at 24° C./16° C., day/night; 14 hours light; 65% humidity) and watered twice daily. After 13 days the test is evaluated for the percentage damage caused to the plant.

[4] = test system: Amaranthus palmeri (AMAPA); experiment: Post-emergence Test (Table B2); conditions: evaluated after 13 days
Procedure: as §1

[5] = test system: Amaranthus retroflexus (AMARE); experiment: Post-emergence Test (Table B2); conditions: evaluated after 13 days
Procedure: as §1

Setaria faberi (SETFA) [6] = experiment: Pre-emergence Test (Table B1); parameters: key: 5=81-100%; 4=61-80%; 3=41-60%; 2=21-40%; 1=0-20%; 0=inactive; conditions: 1000 g/ha, evaluated after 13 days
Zea mays (ZEAMX) [7] = experiment: Pre-emergence Test (Table B1); parameters: key: 5=81-100%; 4=61-80%; 3=41-60%; 2=21-40%; 1=0-20%; 0=inactive; conditions: 1000 g/ha, evaluated after 13 days
[8] = test system: Echinochloa crus-galli (ECHCG); experiment: Post-emergence Test (Table B2); parameters: key: 5=81-100%; 4=61-80%; 3=41-60%; 2=21-40%; 1=0-20%; 0=inactive; conditions: evaluated after 13 days
Procedure: as §1

Zea mays (ZEAMX) [9] = experiment: Post-emergence Test (Table B2); parameters: key: 5=81-100%; 4=61-80%; 3=41-60%; 2=21-40%; 1=0-20%; 0=inactive; conditions: evaluated after 13 days
Procedure: as §1

[10] = test system: Ipomoea hederacea (IPOHE); experiment: Post-emergence Test (Table B2); parameters: key: 5=81-100%; 4=61-80%; 3=41-60%; 2=21-40%; 1=0-20%; 0=inactive; conditions: evaluated after 13 days
Procedure: as §1

[11] = test system: Amaranthus retroflexus (AMARE); experiment: Pre-emergence Test (Table B1); conditions: 1000 g/ha, evaluated after 13 days
[12] = test system: Amaranthus palmeri (AMAPA); experiment: Pre-emergence Test (Table B1); conditions: 1000 g/ha, evaluated after 13 days
[13] = lower rate of 250 g per hectare

SMILES | percentage damage caused to the plant, IPOHE [1] | percentage damage caused to the plant, ECHCG [2] | percentage damage caused to the plant, SETFA (Setaria faberi (SETFA) [3]; 1000 g/ha) | percentage damage caused to the plant, AMAPA ([4]; 1000 g/ha) | percentage damage caused to the plant, AMARE ([5]; 1000 g/ha) | percentage damage caused to the plant, SETFA (Setaria faberi (SETFA) [6]) | percentage damage caused to the plant, ZEAMX (Zea mays (ZEAMX) [7]) | percentage damage caused to the plant, ECHCG ([8]; 1000 g/ha) | percentage damage caused to the plant, ZEAMX (Zea mays (ZEAMX) [9]; 1000 g/ha) | percentage damage caused to the plant, IPOHE ([10]; 1000 g/ha) | percentage damage caused to the plant, AMARE [11] | percentage damage caused to the plant, AMAPA [12] | percentage damage caused to the plant, SETFA (Setaria faberi (SETFA) [3]; [13]) | percentage damage caused to the plant, AMAPA [4, 13] | percentage damage caused to the plant, AMARE [5, 13] | percentage damage caused to the plant, ECHCG [8, 13] | percentage damage caused to the plant, ZEAMX (Zea mays (ZEAMX) [9]; [13]) | percentage damage caused to the plant, IPOHE [10, 13]
C=C(C)COC(=O)c1cc(-c2c(C)n(CC)c(-c3ccc(Cl)c(Cl)c3)c(C(=O)O)c2=O)c(F)cc1Cl [Compound 1, 5-[4-chloro-2-fluoro-5-(2-methylallyloxycarbonyl)phenyl]-2-(3,4-dichlorophenyl)-1-ethyl-6-methyl-4-oxo-pyridine-3-carboxylic acid] | 2 (2=21-40%) | 1 (1=0-20%) | 4 (4=61-80%) | 5 (5=81-100%) | 5 (5=81-100%) | 4 (4=61-80%) | 0 | 5 (5=81-100%) | 2 (2=21-40%) | 2 (2=21-40%) | 5 (5=81-100%) | 5 (5=81-100%) | – | – | – | – | – | –
C#CCOC(=O)c1cc(-c2c(C)n(CC)c(-c3ccc(Cl)c(Cl)c3)c(C(=O)O)c2=O)c(F)cc1Cl [Compound 2, 5-(4-chloro-2-fluoro-5-prop-2-ynoxycarbonyl-phenyl)-2-(3,4-dichlorophenyl)-1-ethyl-6-methyl-4-oxo-pyridine-3-carboxylic acid] | 0 | 0 | 5 (5=81-100%) | 5 (5=81-100%) | 5 (5=81-100%) | 1 (1=0-20%) | 0 | 4 (4=61-80%) | 5 (5=81-100%) | 4 (4=61-80%) | 5 (5=81-100%) | 5 (5=81-100%) | – | – | – | – | – | –
C=CCOC(=O)c1cc(-c2c(C)n(CC)c(-c3ccc(Cl)c(Cl)c3)c(C(=O)O)c2=O)c(F)cc1Cl [Compound 3, 5-(5-allyloxycarbonyl-4-chloro-2-fluoro-phenyl)-2-(3,4-dichlorophenyl)-1-ethyl-6-methyl-4-oxo-pyridine-3-carboxylic acid] | 2 (2=21-40%) | 0 | 5 (5=81-100%) | 5 (5=81-100%) | 5 (5=81-100%) | 1 (1=0-20%) | 0 | 5 (5=81-100%) | 4 (4=61-80%) | 4 (4=61-80%) | 5 (5=81-100%) | 5 (5=81-100%) | – | – | – | – | – | –
C=CC(C)OC(=O)c1ccc(F)c(-c2c(C)n(CC)c(-c3ccc(Cl)c(Cl)c3)c(C(=O)O)c2=O)c1 (centres unmarked) [Compound 5, 2-(3,4-dichlorophenyl)-1-ethyl-5-[2-fluoro-5-(1-methylallyloxycarbonyl)phenyl]-6-methyl-4-oxo-pyridine-3-carboxylic acid] | – | – | – | – | – | – | – | – | – | – | – | – | 1 (1=0-20%) | 3 (3=41-60%) | 2 (2=21-40%) | 0 | 2 (2=21-40%) | 1 (1=0-20%)
CCn1c(C)c(-c2cc(C(=O)OC(C)CN(C)C)ccc2F)c(=O)c(C(=O)O)c1-c1ccc(Cl)c(Cl)c1 (centres unmarked) [Compound 6, 2-(3,4-dichlorophenyl)-5-[5-[2-(dimethylamino)-1-methyl-ethoxy]carbonyl-2-fluoro-phenyl]-1-ethyl-6-methyl-4-oxo-pyridine-3-carboxylic acid] | – | – | 1 (1=0-20%) | 4 (4=61-80%) | 3 (3=41-60%) | – | – | 1 (1=0-20%) | 1 (1=0-20%) | 0 | – | – | – | – | – | – | – | –
CCn1c(C)c(-c2cc(C(=O)OC(C)C(F)(F)F)ccc2F)c(=O)c(C(=O)O)c1-c1ccc(Cl)c(Cl)c1 (centres unmarked) [Compound 7, 2-(3,4-dichlorophenyl)-1-ethyl-5-[2-fluoro-5-(2,2,2-trifluoro-1-methyl-ethoxy)carbonyl-phenyl]-6-methyl-4-oxo-pyridine-3-carboxylic acid] | 1 (1=0-20%) | 2 (2=21-40%) | 4 (4=61-80%) | 5 (5=81-100%) | 5 (5=81-100%) | 2 (2=21-40%) | 1 (1=0-20%) | 3 (3=41-60%) | 2 (2=21-40%) | 1 (1=0-20%) | 5 (5=81-100%) | 5 (5=81-100%) | – | – | – | – | – | –
CCn1c(C)c(-c2cc(C(=O)OC(C)C3CC3)ccc2F)c(=O)c(C(=O)O)c1-c1ccc(Cl)c(Cl)c1 (centres unmarked) [Compound 8, 5-[5-(1-cyclopropylethoxycarbonyl)-2-fluoro-phenyl]-2-(3,4-dichlorophenyl)-1-ethyl-6-methyl-4-oxo-pyridine-3-carboxylic acid] | 0 | 0 | 2 (2=21-40%) | 5 (5=81-100%) | 4 (4=61-80%) | 0 | 0 | 1 (1=0-20%) | 3 (3=41-60%) | 1 (1=0-20%) | 5 (5=81-100%) | 4 (4=61-80%) | – | – | – | – | – | –
CCn1c(C)c(-c2cc(C(=O)OC(C)C3CCCC3)ccc2F)c(=O)c(C(=O)O)c1-c1ccc(Cl)c(Cl)c1 (centres unmarked) [Compound 16, 5-[5-(1-cyclopentylethoxycarbonyl)-2-fluoro-phenyl]-2-(3,4-dichlorophenyl)-1-ethyl-6-methyl-4-oxo-pyridine-3-carboxylic acid] | – | – | 1 (1=0-20%) | 4 (4=61-80%) | 5 (5=81-100%) | – | – | 0 | 1 (1=0-20%) | 0 | – | – | – | – | – | – | – | –
C#CCC(C)OC(=O)c1ccc(F)c(-c2c(C)n(CC)c(-c3ccc(Cl)c(Cl)c3)c(C(=O)O)c2=O)c1 (centres unmarked) [Compound 17, 2-(3,4-dichlorophenyl)-1-ethyl-5-[2-fluoro-5-(1-methylbut-3-ynoxycarbonyl)phenyl]-6-methyl-4-oxo-pyridine-3-carboxylic acid] | 2 (2=21-40%) | 1 (1=0-20%) | 2 (2=21-40%) | 5 (5=81-100%) | 5 (5=81-100%) | 2 (2=21-40%) | 1 (1=0-20%) | 2 (2=21-40%) | 1 (1=0-20%) | – | 5 (5=81-100%) | 5 (5=81-100%) | – | – | – | – | – | –
CCn1c(C)c(-c2cc(C(=O)OC(C)C#N)ccc2F)c(=O)c(C(=O)O)c1-c1ccc(Cl)c(Cl)c1 (centres unmarked) [Compound 41, 5-[5-(1-cyanoethoxycarbonyl)-2-fluoro-phenyl]-2-(3,4-dichlorophenyl)-1-ethyl-6-methyl-4-oxo-pyridine-3-carboxylic acid] | – | – | – | – | – | – | – | – | – | – | – | – | 2 (2=21-40%) | 2 (2=21-40%) | 2 (2=21-40%) | 0 | 0 | 1 (1=0-20%)
